In PMC9906638, “AlphaFold accelerates artificial intelligence powered drug discovery: efficient discovery of a novel CDK20 small molecule inhibitor” (Chemical Science, 2023):
Like-named read-outs stand apart in the source and are kept apart here.

Tests used:
CDK20 [1] = settings: cited from earlier work
CDK20/CycT1 [2] = biological target: T1, CDK20/CycT1 (Homo sapiens, UniProt Q8IZL9); design: method as in doi:10.1158/1538-7445.AM2016-2821
T1 construct: purchased Reaction Biology Corp. (33PanQinase Activity Assay service)
T1 sequence (Q8IZL9 whole entry): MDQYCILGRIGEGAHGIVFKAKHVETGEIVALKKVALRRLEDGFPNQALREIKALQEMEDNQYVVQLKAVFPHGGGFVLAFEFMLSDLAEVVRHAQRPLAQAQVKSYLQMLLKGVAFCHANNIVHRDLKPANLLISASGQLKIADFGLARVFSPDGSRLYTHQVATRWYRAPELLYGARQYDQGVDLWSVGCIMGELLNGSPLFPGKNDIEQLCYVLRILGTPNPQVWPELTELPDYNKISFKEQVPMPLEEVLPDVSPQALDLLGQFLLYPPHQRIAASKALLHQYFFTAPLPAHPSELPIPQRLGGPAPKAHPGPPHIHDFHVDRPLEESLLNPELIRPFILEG
T1 sequence (O60563 whole entry partner): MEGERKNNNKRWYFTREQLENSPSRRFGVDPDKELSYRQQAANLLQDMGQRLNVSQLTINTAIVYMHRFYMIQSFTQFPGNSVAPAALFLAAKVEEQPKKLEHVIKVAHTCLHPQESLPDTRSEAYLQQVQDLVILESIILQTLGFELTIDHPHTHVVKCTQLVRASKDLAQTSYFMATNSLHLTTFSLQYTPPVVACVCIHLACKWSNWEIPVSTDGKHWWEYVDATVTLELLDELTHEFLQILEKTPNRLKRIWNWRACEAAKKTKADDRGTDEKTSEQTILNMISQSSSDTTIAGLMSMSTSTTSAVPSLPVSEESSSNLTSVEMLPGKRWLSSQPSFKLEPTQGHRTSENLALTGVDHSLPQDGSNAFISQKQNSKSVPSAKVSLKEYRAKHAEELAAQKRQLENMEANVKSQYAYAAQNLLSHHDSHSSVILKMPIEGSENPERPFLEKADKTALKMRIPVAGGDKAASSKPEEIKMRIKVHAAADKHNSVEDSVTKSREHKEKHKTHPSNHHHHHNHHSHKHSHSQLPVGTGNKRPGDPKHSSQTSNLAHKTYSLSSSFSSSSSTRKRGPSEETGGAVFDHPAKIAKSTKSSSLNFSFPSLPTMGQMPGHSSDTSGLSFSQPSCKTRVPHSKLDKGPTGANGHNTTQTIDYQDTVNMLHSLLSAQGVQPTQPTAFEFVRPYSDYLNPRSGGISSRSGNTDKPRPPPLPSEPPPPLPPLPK

CDK20 [3] = biological target: T2, CDK20 (Homo sapiens, UniProt Q8IZL9); test: CDK20 human CMGC kinase binding assay (KINOMEscan); settings: for Kd: CDK20 kinase binding assay, mean ± SD of three independent experiments; for fold improvement in binding affinity compared to ISM042-2-001: ratio of Kd values
T2 construct: purchased DiscoverX/Eurofins (KINOMEscan service); host or cells: HEK-293
T2 sequence (Q8IZL9 whole entry): as the sequence (Q8IZL9 whole entry) above
Description: CDK20 human CMGC kinase binding assay
The assay was available as a product of the KINOMEscan service from DiscoverX/Eurofins. In brief, CDK20 proteins were produced in HEK-293 cells and subsequently tagged with DNA for qPCR detection. […] The liganded beads were blocked with excess biotin and washed with blocking buffer (SeaBlock (Pierce), 1% BSA, 0.05% Tween 20, and 1 mM DTT) to remove the unbound ligand and to reduce non-specific binding. […] Binding constants (Kds) were determined using an 11-point 3-fold compound dilution series with three DMSO control points. […] The compounds were then diluted directly into the assays such that the final concentration of DMSO was 0.9%. All reactions were performed in polypropylene 384-well plates. Each has a final volume of 0.02 ml. […] The kinase concentration in the eluates was measured by qPCR. Kds were calculated with a standard dose–response curve. The curves were fitted using a non-linear least squares fit with the Levenberg–Marquardt algorithm.

CDK20/CycT1 [4] = biological target: T1, CDK20/CycT1; test: CDK20 kinase activity assay (radiometric 33PanQinase); format: biochemical
Description: CDK20 kinase activity assay
A radiometric protein kinase assay ([33]PanQinase® ActivityAssay, available as a service product from Reaction Biology Corp.) was used for measuring the kinase activity of the CDK20 kinases. This assay was performed in 96-well FlashPlates™ from PerkinElmer (Boston, MA, USA) in a 50 μl reaction volume. The reaction cocktail was pipetted in four steps in the following order: (a) 25 μl of assay buffer (standard buffer/[γ-^33P]-ATP); (b) 10 μl of ATP solution (in H2O); (c) 5 μl of test compound (in 10% DMSO); (d) 10 μl of enzyme/substrate mixture. The assay for CDK20 kinase contained 70 mM HEPES-NaOH pH 7.5, 3 mM MgCl2, 3 mM MnCl2, 3 μM Na-orthovanadate, 1.2 mM DTT, 50 μg ml^−1 PEG20000, 1.0 μM ATP [γ-[33]P],-ATP (approx. 7 × 10^5 cpm per well), and 200 ng/50 μl kinase protein, and the substrate was 4.0 μg/50 μl. The compounds were dissolved to 1 × 10^−3 M in volumes of 100% DMSO. The 1 × 10^−3 M stock solutions were subjected to a serial, semi-logarithmic dilution using 100% DMSO as a solvent. The final volume of the assay was 50 μL All compounds were tested at 10 final assay concentrations in the range from 1 × 10^−5 M to 3 × 10^−10 M. The final DMSO concentration in the reaction cocktails was 1% in all cases. The “low control” was defined as the value that reflects unspecific binding of radioactivity to the plate in the absence of a protein kinase but in the presence of the substrate. The “high control” was defined as the full activity in the absence of any inhibitor. The difference between high and low controls was taken as 100% activity. As part of the data evaluation the low control value from a particular plate was subtracted from the high control value as well as from all 80 “compound values” of the corresponding plate.
The residual activities for each concentration and the compound’s IC50 values were calculated using Quattro Workflow V3.1.1 (Quattro Research GmbH, Munich, Germany; http://www.quattro-research.com/). […] The fitting method used was a least-squares fit.

Huh7 = test: Cell viability assay (Celltiter Glo), Huh7; format: cell-based; settings: Homo sapiens, Huh-7, 72 h; HCC cell line with CDK20 overexpression; 3 days incubation; read-out: anti-proliferation IC50 in Huh7
Description: (§1) The Huh7 and HEK293 cells were maintained in DMEM with 10% FBS and 1% streptomycin and penicillin in 5% CO2. When the confluence of these two cell lines reached 80–90%, cells were harvested and resuspended, and the proper cells were added into a 384-well plate as below: Huh-7: 650 cells per well; HEK-293 : 300 cells per well. The final testing concentrations of the compounds were: 10 000, 3333, 1111, 370, 123, 41.2, 13.7, 4.57, 1.52, and 0.51 nM. The cells were incubated in a 37 °C, 5% CO2 incubator for 3 days, and then a reagent was added (Celltiter Glo assay kit) to the cells for testing and a Multiplate reader was used to record the chemiluminescence value. And GraphPad Prism 9 software was used to calculate IC50 and plot the effect–dose curve of compounds. The assays were conducted at Pharmaron Inc. in a fee-for-service mode.

HEK293 = test: Cell viability assay (Celltiter Glo), counter screen HEK293; format: cell-based; settings: Homo sapiens, HEK293, 72 h; counter screen cell line; 3 days incubation; read-out: anti-proliferation IC50 in HEK293
Description: as §1

[5] = read-out: CDK20/CycT1 IC50; poster of Mueller et al.; cited from earlier work
[6] = CDK20 kinase activity assay, 1.0 μM ATP, values with SD from three independent experiments, read-out: CDK20/CycT1 IC50

SMILES	Kd (CDK20 [3]) [µM]	IC50 (CDK20/CycT1 [4]; [6]) [µM]	also measured
O=C(Nc1ccc2cc(C(=O)Nc3nccs3)ccc2c1)c1ccc(Cl)c(Cl)c1 [AAPK-25]	–	–	Kd (CDK20 [1]): 8.02 µM
CC(C)(CO)CNCc1ccc(Nc2ncc(SCc3ncc(C(C)(C)C)o3)s2)nc1 [BMS-357075]	–	–	Kd (CDK20 [1]; disclosed by Eurofins): 0.056 µM
CCc1cnn2c(NCc3ccc[n+]([O-])c3)cc(N3CCCC[C@H]3CCO)nc12 [Dinaciclib]	–	–	IC50 (CDK20/CycT1 [2]; [5]): 2.86 µM
CNC(=O)c1cc(Nc2ncc3ccccc3n2)c[nH]1 [ISM042-2-001]	9.2 ± 0.5	> 6	–
Cn1cc(Oc2ccnc(NC3(C)CC3)c2)cn1 [ISM042-2-004]	> 30	–	–
NC(=O)c1cc(N2CCC(F)(F)CC2)nc(-c2cc[nH]n2)n1 [ISM042-2-007]	> 30	–	–
c1cc(-n2cc(C3COC3)nn2)cc(NC2CC2)n1 [ISM042-2-009]	> 30	–	–
CCc1ccc(-c2cccc3nc(NC4CCCC4)[nH]c23)[nH]c1=O [ISM042-2-015]	> 30	–	–
Cc1ccnc(-n2cncc2N2CC3(COC3)C2)n1 [ISM042-2-019]	> 30	–	–
c1cc(-c2nc3cnncc3s2)nc(N[C@H]2CCNC2)n1 [ISM042-2-025]	> 30	–	–
CNC(=O)c1cc(Nc2ncc3ccc(-c4cn[nH]c4)cc3n2)c[nH]1 [ISM042-2-048]	0.567 ± 0.256	0.0334 ± 0.0226	fold improvement in binding affinity compared to ISM042-2-001 (CDK20 [3]): 15 fold; IC50 (Huh7): 0.209 ± 0.0033 µM; IC50 (HEK293): 1.71 ± 0.67 µM
CNC(=O)c1cc(Nc2ncc3ccc(=O)n(C4CCCC4)c3n2)c[nH]1 [ISM042-2-049]	0.36 ± 0.0141	0.468 ± 0.006	fold improvement in binding affinity compared to ISM042-2-001 (CDK20 [3]): 24 fold
CNC(=O)c1cccc(Nc2ncc3ccccc3n2)c1 [ISM042-2-050]	5.33 ± 1.19	7.1 ± 0.478	–
CN(C)CCNC(=O)c1cc(Nc2ncc3ccccc3n2)c[nH]1 [ISM042-2-052]	18.7 ± 6.34	–	IC50 (CDK20/CycT1 [4]): > 6 µM
CN1CCN(CCNC(=O)c2cc(Nc3ncc4ccccc4n3)c[nH]2)CC1 [ISM042-2-053]	17.7 ± 4.03	7.8 ± 0.125	–
CN1CCC(NC(=O)c2cc(Nc3ncc4ccccc4n3)c[nH]2)CC1 [ISM042-2-055]	14.3 ± 1.7	4.08 ± 0.575	–
CC(=O)c1c(C)c2cnc(Nc3ccc(N4CCNCC4)cn3)nc2n(C2CCCC2)c1=O [Palbociclib]	–	–	IC50 (CDK20/CycT1 [2]; poster of Mueller et al.; read-out: CDK20/CycT1 IC50; cited from earlier work): 1.26 µM
CC[C@H](CO)Nc1nc(NCc2ccccc2)c2ncn(C(C)C)c2n1 [Roscovitine]	–	–	IC50 (CDK20/CycT1 [2]; [5]): 8.68 µM
